Active and inactive are the calls of the source.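 The calls were made as follows: active = mean IC50 at or below 10 µM; inactive = the rest.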
System: H9c2 cardiomyocytes, H2O2 protection, ATPLite viability, 2 h
Assay: protection of H9c2 cardiomyocytes from H2O2 death, dose response, cell-based, ATPLite luminescence, set 2 (AID 602211);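 also: potency is for protection so actives keep ATP signal up against peroxide killing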

Structure (SMILES) | IC50
COc1ccc(-c2cc(C(=O)Nc3ccccc3N3CCOCC3)c3ccccc3n2)cc1OC | 4.52 µM
CCOC(=O)C1CCN(C(=O)c2ccc3c(=O)n4nc(Nc5ccccc5OC)sc4nc3c2)CC1 | 6.31 µM
COC(=O)c1cccc(S(=O)(=O)N(Cc2ccco2)Cc2cc3cc(OC)ccc3[nH]c2=O)c1 | 42.2 µM (inactive)
Cc1ccc(NC(=O)c2cc(=O)c3ccccc3o2)cc1S(=O)(=O)N1CCOCC1 | 5.15 µM
CCN(C[C@H]1N[C@@](Cc2ccccc2)(C(=O)OC)[C@H]2C(=O)N(C)C(=O)[C@@H]12)S(=O)(=O)c1ccc(OC)cc1 | 21.1 µM (inactive)
COc1ccccc1-c1cc(NC(C)=O)c2ncc(-c3cccc(C(C)=O)c3)n2c1 | 11.1 µM (inactive)
Cc1ccc(C)c(C(=O)Nc2cc(C)nn2-c2nc(C)cc(C)n2)c1 | 65.6 µM (inactive)
COc1cc(NC(=O)c2cc([N+](=O)[O-])ccc2NC(=O)CN2CCN(c3ccccn3)CC2)cc(OC)c1 | 2.58 µM
COc1ccc(C(=O)Nc2cccc(/C(C)=N/NC(=O)c3ccc([N+](=O)[O-])c(C)c3)c2)cc1OC | 4.93 µM
COc1ccc(C=NNc2nc3c([nH]2)c(=O)n(C)c(=O)n3C)cc1 | 5.8 µM
COc1ccc(NC(=O)c2cc(-c3ccccn3)nc3ccccc23)cc1S(=O)(=O)N(C)C | 2.46 µM
COc1ccc(-n2c(/C=C/c3ccc(O)c(OC)c3)nc3ccccc3c2=O)cc1 | 1.58 µM
COc1ccc(-c2cc(NC=O)c3ncc(-c4cccc(C(C)=O)c4)n3c2)cc1 | > 79 µM (inactive)
CC(=O)Nc1cc(-c2cccc(NS(C)(=O)=O)c2)cn2c(-c3cccc(C(C)=O)c3)cnc12 | 15 µM (inactive)
COc1ccc(Nc2nnc(-c3ccc(O)cc3)c3ccccc23)cc1C(N)=O | 11.3 µM (inactive)
O=C(N/N=C/c1ccncc1)c1ccc(COc2cccc3cccnc23)cc1 | 25.3 µM (inactive)
COc1cc(/C=C(\C#N)C(=O)Nc2ccccc2F)ccc1OCCN1CCOCC1 | 15.9 µM (inactive)
O=C(Nc1nc(-c2cc(F)ccc2F)cs1)C1=NN(c2ccccc2)C(=O)CC1 | 6.26 µM
CCOC(=O)c1c(C)[nH]c(O)c1C=Nc1ccc(Cl)cc1 | 34.4 µM (inactive)
Cc1ccccc1C1c2[nH]c3ccccc3c2C[C@H]2C(=O)N(c3ccccc3C(=O)NCCCN3CCOCC3)C(=O)N12 (stereo partly specified) | 17.2 µM (inactive)
COc1ccc(C(=O)COC(=O)C(CCCCN2C(=O)C3C4C=CC(C4)C3C2=O)N2C(=O)C3C4C=CC(C4)C3C2=O)cc1 (stereo unspecified) | 4.84 µM
Cc1ccc(C(C(=O)NCc2ccccc2)N(Cc2ccco2)C(=O)c2snc(C(N)=O)c2N)o1 (stereo unspecified) | 1.8 µM
O=C1OCCN1C(=O)[C@H]1[C@H](c2ccc([N+](=O)[O-])cc2)C(c2ccc(F)cc2)=NN1c1ccc(Br)cc1 | 3.09 µM

Structure (SMILES) | IC50
CCOc1cc(/C=C/c2ccc3cccc([N+](=O)[O-])c3n2)ccc1OCC(=O)N(C)C | 9.02 µM
COc1cccc(C(=O)Nc2cccc(-c3nnc(-c4ccco4)o3)c2)c1 | > 79 µM (inactive)
Cc1nc(SCC(=O)N2CCN(c3ccccc3)CC2)c2oc3ccccc3c2n1 | 3.43 µM
O=C(O)c1ccc2c(c1)S(=O)(=O)c1cc(N3CCN(c4cnccn4)CC3)ccc1C2=O | > 79 µM (inactive)
CCOC(=O)c1cccc(Nc2nc(-c3cccnc3)nc3ccccc23)c1 | > 79 µM (inactive)
COc1cccc(Nc2nc3ccccc3n3cnnc23)c1 | 9.05 µM
COCCn1nnnc1CN(CCc1ccccc1)Cc1cc2cc(OC)ccc2[nH]c1=O | 5.12 µM
CC(=O)Nc1cccc(-c2cc(NC(C)=O)c3ncc(-c4cccc(C(C)=O)c4)n3c2)c1 | 38.4 µM (inactive)
COc1ccc(CN(C)C(=O)C(Cc2ccccc2)NC(=O)c2ccccc2)cc1F (stereo unspecified) | 2.67 µM
COc1cc(/C=N/n2nnnc2Nc2ccccc2)cc(OC)c1OC | 9.53 µM
Cc1nn(-c2ccccc2)nc1C(=O)Nc1cccc(C(=O)NC2CC2)c1 | 4.37 µM
Cc1cccc(NC(=O)c2nc[nH]c2C(=O)NCCCNC(=O)c2[nH]cnc2C(=O)Nc2cccc(C)c2)c1 | 0.729 µM
CC(=O)Nc1cc(-c2cccc(C(=O)N(C)C)c2)cn2c(-c3ccc(C(C)=O)cc3)cnc12 | 7.78 µM
CCOC(=O)c1c(C)[nH]c(C)c1C(=O)COc1ncnc2cc([N+](=O)[O-])ccc12 | 11.1 µM (inactive)
Cc1[nH]c2ccccc2c1/C=N/NC(=O)c1cc(-c2ccccc2)n[nH]1 | 2.89 µM
CCOC(=O)C1CCCN(C(=O)CCC(=O)Nc2ccc3nc(N4CCOCC4)cc(C)c3c2)C1 (stereo unspecified) | > 79 µM (inactive)
Brc1cc2c(cc1/C=N/Nc1nc(N3CCCC3)nc(N3CCOCC3)n1)OCO2 | 8.27 µM
COc1cc(C(=O)N/N=C/c2sc(N3CCOCC3)nc2-c2ccccc2)cc(OC)c1OC | 16.9 µM (inactive)
CCN1C(=O)/C(=C/c2nc3ccccc3c(=O)[nH]2)c2ccccc21 | 7.84 µM
Cc1cc(C)c(C)c(S(=O)(=O)N2CCN(C(=O)c3cc(=O)[nH]c4ccccc34)CC2)c1C | 0.998 µM
Cc1nnc2ccc(-c3cccc(NC(=O)c4ccc(Cl)nc4)c3)nn12 | 2.62 µM
COC(=O)c1cc2c(-c3ccccc3)cc3ccccn3c-2c1C(=O)OC | 6.44 µM
COc1cccc(-c2cnc3c(NC=O)cc(-c4ccc(O)c(OC)c4)cn23)c1 | 5.89 µM

Structure (SMILES) | IC50
O=CNc1cc(-c2ccc(C(=O)NC3CC3)cc2)cn2c(-c3ccc(F)c(Cl)c3)cnc12 | 5.46 µM
COc1cccc(CN2CCN(C(=O)c3cc(-c4cccnc4)nc4ccc(C)cc34)CC2)c1 | 22.9 µM (inactive)
C=C1C(C)C2C(Cc3ccccc3)NC(=O)C23OC(=O)/C=C/C(O)CCCC(C)C/C=C/C3C1O (stereo unspecified) | 0.611 µM
Cc1cccc(NC(=O)c2nc[nH]c2C(=O)NCCCCCCNC(=O)c2[nH]cnc2C(=O)Nc2cccc(C)c2)c1 | > 79 µM (inactive)
CCn1nc(C(=O)Nc2nc(-c3ccccn3)cs2)c2ccccc2c1=O | 3.37 µM
COc1ccc(-c2csc(NC(=O)c3cccc(N4C(=O)CCC4=O)c3)n2)cc1OC | 5 µM
COc1ccccc1OP(=O)(Nc1cccnc1)Oc1ccccc1OC | 2.28 µM
CC(=O)c1ccc(-c2[nH]c3ccccc3c2CCN2C(=O)c3ccccc3C2=O)cc1 | 9.73 µM
COc1ccc(CCNC(=O)C(=O)NCC2CCCN2S(=O)(=O)c2ccccc2)cc1OC (stereo unspecified) | 6.18 µM
NC(=O)c1oc2ccccc2c1NC(=O)c1ccco1 | 21.4 µM (inactive)
Cn1c(=O)[nH]c(=O)c2c1nc(N(CCO)Cc1ccccc1)n2CCCc1ccccc1 | 11.3 µM (inactive)
C[C@H](CO)N1C[C@H](C)[C@@H](CN(C)S(=O)(=O)c2ccc(F)cc2)Oc2ccc(NC(=O)Nc3ccc4c(c3)OCO4)cc2C1=O | 10.1 µM (inactive)
CC(C)(C)OC(=O)NCC12C=CC(O1)C1C(=O)N(Cc3ccccc3)C(=O)C12 (stereo unspecified) | 2.91 µM
Brc1ccc(-c2ccc(/C=N/Nc3nc(N4CCOCC4)nc(N4CCOCC4)n3)o2)cc1 | 3.61 µM
COc1ccc(N(CC(=O)Nc2cccc(C(C)=O)c2)S(=O)(=O)c2ccc(NC(C)=O)cc2)cc1 | 3.03 µM
COc1cc(NC(=O)c2ccco2)c(C(=O)OCC(=O)c2c[nH]c3ccccc23)cc1OC | > 79 µM (inactive)
CNC(=O)c1cccc(NC(=O)c2cc(-c3ccccc3)nc3c2cnn3C(C)C)c1 | > 79 µM (inactive)
CCOC(=O)c1cc2c(=O)n3cccc(C)c3nc2n(CCCOC)c1=NC(=O)c1cccnc1 | 2.87 µM
O=C(CN1C(=O)C2C3C=CC(C3)C2C1=O)Nc1nc(-c2ccccn2)cs1 (stereo unspecified) | 21.1 µM (inactive)
COc1cc(CN2C[C@@H](CO)O[C@@H](n3cnc4c(Nc5ccccc5)ncnc43)C2)cc(OC)c1OC | 10.6 µM (inactive)
O=C(COc1cccc(NC(=O)c2cccc([N+](=O)[O-])c2)c1)c1ccc(F)cc1 | 9.26 µM
Cc1c(OCC(=O)NCCN2CCOCC2)ccc2c1oc(=O)c1ccccc12 | 5.33 µM
Cc1cc(C)c2c(N)c(C(=O)N/N=C/c3cccnc3)sc2n1 | 12.1 µM (inactive)

Structure (SMILES) | IC50
O=C(NCC(=O)N(Cc1cccs1)C(C(=O)NC1CCCCC1)c1ccco1)c1ccco1 (stereo unspecified) | 10.6 µM (inactive)
CCn1c(SCC(=O)Nc2ccccc2N2CCCCC2)nc2c1c(=O)n(C)c(=O)n2C | > 79 µM (inactive)
COc1ccc(NC(=O)c2oc3ccc(S(=O)(=O)N4CCOCC4)cc3c2C)cc1 | 0.815 µM
CNC(=O)c1ccc(-c2sc3nc(N4CCOCC4)c4c(c3c2N)CCCC4)o1 | 11.6 µM (inactive)
COc1ccc(-c2cc(-c3ccc(O)cc3)nc(N)c2C#N)cc1OC | > 79 µM (inactive)
O=C1N[C@H](Cc2ccccc2)COC(=O)[C@@H](Cc2ccc(F)cc2)C/C=C\C[C@H]1CC(=O)N(CCO)Cc1ccccc1 | > 79 µM (inactive)
CCn1nc(C(=O)NNC(=O)c2cc(Cl)ccc2OC)c2ccccc2c1=O | 30 µM (inactive)
COc1ccc(-c2ccc3c(c2)S(=O)(=O)c2cccc(C(=O)N4CCN(c5c(Cl)cncc5Cl)CC4)c2C3=O)cc1OC | 4.27 µM
COc1ccc(/C=N/NC(=O)c2ccc(COc3cccc4cccnc34)cc2)cc1OC | 3.89 µM
COc1ccc2[nH]c(=O)c(CN(CC3CCCO3)S(=O)(=O)c3ccccc3F)cc2c1 (stereo unspecified) | 4.52 µM
COC(=O)c1ccccc1NC(=O)/C=C/c1cc(OC)c(OC)c(OC)c1 | 10.9 µM (inactive)
O=C(CSc1nnc(-c2ccccc2)n1Cc1ccccc1)NNC(=O)c1ccccc1O | 4.2 µM
CCOC(=O)C1=C(C)N=c2s/c(=C\c3ccncc3)c(=O)n2C1c1ccc2c(c1)OCO2 (stereo unspecified) | 8.34 µM
COc1cccc(-c2cnc3c(NC(C)=O)cc(-c4cccc(NS(C)(=O)=O)c4)cn23)c1 | 7.84 µM
COc1ccc(N(Cc2cc3cc(OC)ccc3[nH]c2=O)C(=O)c2cccnc2)cc1 | 19.1 µM (inactive)
CCC(c1nnnn1Cc1ccccc1)N1CCC(n2c(=O)[nH]c3ccccc32)CC1 (stereo unspecified) | > 79 µM (inactive)
CC(=O)NCc1ccc(-c2csc(NC(=O)CCc3nc4ccccc4c(=O)[nH]3)n2)s1 | 4.3 µM
O=c1oc2ccc3ccccc3c2cc1-c1nnc(-c2ccccc2)o1 | 17.5 µM (inactive)
C[C@@H](NC(=O)c1nc[nH]c1C(=O)NCC(=O)OCc1ccccc1)c1ccccc1 | 51.6 µM (inactive)
COc1cc(/C=C/c2nc3ccccc3c(=O)n2-c2ccccc2O)ccc1O | 9.9 µM
CCOc1ccc(CCNC(=O)c2cc3c(C)nccc3[nH]c2=O)cc1OCC | 42.9 µM (inactive)
O=C(COC(=O)c1ccccc1C(=O)OCC(=O)NCCc1c[nH]c2ccccc12)NCCc1c[nH]c2ccccc12 | 4.86 µM

From PubChem BioAssay AID602211 (Sanford-Burnham Center for Chemical Genomics, 2012)
